The record followed here is PubChem BioAssay AID1421 (Emory University Molecular Libraries Screening Center, 2008).

Structures are written as SMILES. Calls of active or inactive are those of the source. The rule behind the calls is not given here.

The target of this test is Prostaglandin E2 receptor EP2 subtype (Homo sapiens) (UniProt P43116). Description: EP2 receptor modulators, dose response, cell-based, human EP2, PGE2 EC50 shift (AID 1421). The following applies: EP2-expressing cells, PGE2 EC50 shift by compound; for PGE2 EC50 with compound: measured here: PGE2 EC50 at 6.7 uM compound.
Prostaglandin E2 receptor EP2 subtype (Homo sapiens), sequence (P43116 whole entry, looked up): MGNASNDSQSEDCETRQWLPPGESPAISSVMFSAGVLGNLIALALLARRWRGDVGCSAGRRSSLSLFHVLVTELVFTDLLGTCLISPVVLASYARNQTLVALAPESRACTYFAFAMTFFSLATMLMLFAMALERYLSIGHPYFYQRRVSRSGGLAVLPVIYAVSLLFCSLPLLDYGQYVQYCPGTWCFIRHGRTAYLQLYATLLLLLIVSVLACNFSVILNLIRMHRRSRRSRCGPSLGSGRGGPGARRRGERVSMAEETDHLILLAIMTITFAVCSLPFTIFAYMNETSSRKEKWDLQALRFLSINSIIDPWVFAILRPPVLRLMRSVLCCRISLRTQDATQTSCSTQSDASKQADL

For `Cc1cccc(OCc2n[nH]c(=S)n2Cc2ccccc2)c1`, the PGE2 EC50 with compound was determined as 1.31 nM.

Take `CC(C)CCn1c(Oc2ccc(Cl)cc2)nc2c1c(=O)n(C)c(=O)n2C`: the PGE2 EC50 with compound turned out to be 0.72 nM.

On to `CCCn1c(Nc2nc3ccccc3n2C)nc2ccccc21`, for which the PGE2 EC50 with compound worked out at 1.02 nM.

Regarding `O=C(CSc1nnc(Cc2ccccc2)n1Cc1ccco1)NC12CC3CC(CC(C3)C1)C2`, the PGE2 EC50 with compound came to 1.73 nM.

For the compound `COc1cnc(SCc2c(Cl)cccc2Cl)nc1Cl`, the PGE2 EC50 with compound came to 1.76 nM.

As to `Cc1cccc(-n2c(=S)[nH]c3c(oc4ccccc43)c2=O)c1`, the PGE2 EC50 with compound was 2.78 nM.

For `COc1ccccc1C(=O)NC(=S)Nc1cc(C(=O)O)ccc1C`, the PGE2 EC50 with compound came out at 1.18 nM.

On to `CCCC(=O)C1=C(O)C(C(=O)OC)C(C)(C)CC1=Nc1cccc2ccccc12` (stereo not drawn), for which the PGE2 EC50 with compound turned out to be 1.53 nM.

As for `Cc1ccc(-c2nnn(CC(=O)N(Cc3cccs3)C(C(=O)NC3CCCC3)c3ccncc3)n2)cc1` (stereo not drawn), the PGE2 EC50 with compound turned out to be 0.72 nM.

Consider `C[C@H](N)[C@H](O)c1ccc(O)c(O)c1`, for which the PGE2 EC50 with compound stood at 1.32 nM.

Take `CCCCOc1cc(C)nc(NCc2ccccc2)n1`: the PGE2 EC50 with compound was 1.47 nM.

Consider `NC(=O)CSc1nc(-c2ccccc2)c(-c2ccccc2)o1`, for which the outcome was active and the PGE2 EC50 with compound is 0.94 nM.

For the compound `Fc1ccc(C(c2ccc(F)cc2)N2CCN(C/C=C/c3ccccc3)CC2)cc1`, the PGE2 EC50 with compound was found to be 1.19 nM.

Consider `C=CCn1c(SCc2c(C)noc2C)nc2sc(C)c(C)c2c1=O`, for which the PGE2 EC50 with compound is 0.62 nM.

On to `CCCc1cc(=O)n2[nH]c(NCc3cccs3)nc2n1`, for which the PGE2 EC50 with compound stood at 2.54 nM.

With `CCc1ccc2[nH]c(=O)c(C(c3nnnn3CC3CCCO3)N3CCCc4ccccc43)cc2c1` (stereo not drawn), the PGE2 EC50 with compound worked out at 0.99 nM.

For `CCOc1ccc2cc(C#N)c(SCC(=O)NC(C)CC)nc2c1` (stereo not drawn), the PGE2 EC50 with compound turned out to be 1.36 nM.

On to `CC(C)Cc1nc2sc3c(=O)[nH]cnc3c2c2c1CCC2`, for which the PGE2 EC50 with compound was determined as 1.48 nM.

Turning to `CCOc1ccc(N(Cc2ccc(OC)cc2)C(=O)c2ccco2)cc1`, the PGE2 EC50 with compound stood at 1.12 nM.

Turning to `CCOC(=O)c1c(C=O)c(C)n(Cc2ccccc2Cl)c1C`, the PGE2 EC50 with compound stood at 1.34 nM.

`COCC(=O)N(C)c1nnc(-c2cnc(C)cn2)s1`: the PGE2 EC50 with compound came to 1.36 nM.

With `O=C(O)c1ccc(N2C(=O)/C(=C/C=C/c3ccccc3)SC2=S)cc1`, the PGE2 EC50 with compound worked out at 2.89 nM.

As to `CSc1ccccc1NC(=O)CN(C)Cc1cccc(Cl)c1`, the outcome was active and the PGE2 EC50 with compound was 0.97 nM.

Take `COC(=O)NC1(C(F)(F)F)C(=O)NC(C)=C1C(=O)OC` (stereo not drawn): the PGE2 EC50 with compound was 1.02 nM.

Turning to `COc1cc(C)c(C(=O)Oc2cc(C)c(C(=O)O)c(O)c2C)c(OC)c1C`, the PGE2 EC50 with compound was found to be 0.98 nM.

In the case of `OC(Cc1ccccc1)(Cc1ccccc1)c1ccccc1`, the outcome was active and the PGE2 EC50 with compound was 1.02 nM.

For `CCn1c2ccc(Cl)cc2c2nc3ccccc3nc21`, the PGE2 EC50 with compound is 0.98 nM.

Turning to `O=c1c2c(n3cnnc3n1C1CCCCC1)-c1ccccc1CC21CCCCC1`, the PGE2 EC50 with compound came to 0.33 nM.

Consider `c1ccc(C2=Nc3ccccc3NC(c3ccccc3)C2)cc1` (stereo not drawn), for which the PGE2 EC50 with compound was determined as 2.58 nM.

Turning to `N#Cc1sc2nc(C3CC3)cc(-c3ccccc3)c2c1N`, the PGE2 EC50 with compound was 0.78 nM.

`COc1c(O)cc2oc3cc(O)c(CC=C(C)C)c(O)c3c(=O)c2c1CC=C(C)C`: the PGE2 EC50 with compound was 2.62 nM.

Regarding `Nc1n[nH]c2c1C1(CCCCC1)Cc1ccccc1-2`, the PGE2 EC50 with compound is 2.69 nM.

Take `COc1ccc(N2CCN(c3nc4c(c(=O)n(C)c(=O)n4C)n3Cc3ccccc3)CC2)cc1`: the PGE2 EC50 with compound was 0.92 nM.

`OCCCNc1nc(-c2ccc(Br)cc2)nnc1-c1ccc(Cl)cc1`: the PGE2 EC50 with compound is 1.42 nM.

`CC(C)C(=O)c1cc2c(cc1NC(=O)c1ccccc1)OCCO2`: the outcome was active and the PGE2 EC50 with compound amounted to 0.88 nM.

Regarding `Cn1nc(C(F)(F)F)c(/C=N/OC(=O)c2ccccc2)c1Sc1ccc(Cl)cc1`, the PGE2 EC50 with compound amounted to 1.31 nM.

Take `CCOC(=O)c1c(-c2ccc(-c3ccccc3)cc2)csc1NC(=O)CCN1CCOCC1`: the PGE2 EC50 with compound stood at 1.34 nM.

Take `CCCCCCCCCc1ccc(O)cc1`: the PGE2 EC50 with compound came out at 0.74 nM.

As for `Cc1ccc(S(=O)(=O)c2c(C)nn(-c3ccccc3)c2OC(=O)c2ccco2)cc1`, the PGE2 EC50 with compound came out at 0.71 nM.

For `NC(=NCCC[C@H](N)C(=O)O)N[N+](=O)[O-]`, the result was active and the PGE2 EC50 with compound was found to be 1.93 nM.

In the case of `O=S(=O)(c1cccc(C(F)(F)F)c1)N1c2ccccc2-n2cccc2[C@H]1c1cccnc1`, the PGE2 EC50 with compound worked out at 1.09 nM.

Regarding `CC(=O)N1N=C2/C(=C/c3ccccc3)CCCC2C1c1ccccc1` (stereo not drawn), the PGE2 EC50 with compound was 1.25 nM.

Consider `CC(C)c1nc(Cl)c(C#N)c2c1CSC(C)(C)C2`, for which the PGE2 EC50 with compound was determined as 0.85 nM.

For the compound `C=CCOc1ccc2c(c1)C(=NO)c1cc(OCC=C)ccc1-2`, the PGE2 EC50 with compound came to 0.62 nM.

As to `O=S(=O)(c1cccs1)N1CN(Cc2cccs2)c2nc3ccccc3nc21`, the PGE2 EC50 with compound was determined as 1.64 nM.

As to `CC1C(c2ccccc2)N(C)C(c2ccccc2)C(C)C1(O)C#Cc1ccccc1` (stereo not drawn), the PGE2 EC50 with compound worked out at 0.32 nM.

For the compound `O=C(OCc1ccccc1Cl)c1ccccc1C(=O)c1ccccc1`, the PGE2 EC50 with compound amounted to 1.13 nM.

Take `CC(C)(C)c1nc2ccccc2c(=O)n1N1C(=O)c2ccccc2C1=O`: the PGE2 EC50 with compound turned out to be 0.82 nM.

Take `Cc1cccc(-c2csc(N)c2C(=O)OC(C)C)c1`: the PGE2 EC50 with compound was found to be 0.97 nM.

`COC(=O)c1c(NC(=O)Cc2cccs2)sc2c1CCCC2`: the PGE2 EC50 with compound turned out to be 1.02 nM.

`O=C(c1cn(Cc2ccccc2)c2ccccc12)C1CC1`: the PGE2 EC50 with compound was determined as 2.61 nM.

In the case of `O=c1[nH]c(=S)c2c(n1-c1ccccc1)CCC2`, the PGE2 EC50 with compound is 1.46 nM.

`Cc1onc(-c2c(F)cccc2Cl)c1C(=O)OCn1nnc2ccccc2c1=O`: the PGE2 EC50 with compound turned out to be 0.92 nM.

With `Brc1cccc(-c2nnc(SCc3ccon3)n2-c2ccccc2)c1`, the PGE2 EC50 with compound stood at 1.06 nM.

Regarding `COc1cc2c(cc1OC)-c1cc(N3CCCc4ccccc43)nc(=O)n1CC2`, the outcome was active and the PGE2 EC50 with compound stood at 1.98 nM.

On to `O=P(c1ccccc1)(c1ccccc1)c1nc(-c2ccccc2)oc1NCc1ccccc1`, for which the PGE2 EC50 with compound came to 0.33 nM.

On to `Fc1cccc(CSc2ncnc3c2oc2ccccc23)c1`, for which the PGE2 EC50 with compound was 2.7 nM.

For the compound `Cc1noc(C)c1CSc1nc2ccccc2c(=O)n1-c1ccc(F)cc1F`, the PGE2 EC50 with compound came out at 1.09 nM.

With `Cc1ccc(C2CC(c3cccs3)=NN2C(=O)c2ccc(Br)o2)cc1` (stereo not drawn), the PGE2 EC50 with compound came out at 0.75 nM.

With `CC1CCN(c2ccccc2NC(=O)c2ccc(F)cc2)CC1`, the PGE2 EC50 with compound worked out at 0.69 nM.

Regarding `Oc1ccc2ccccc2c1Cc1c(O)ccc2ccccc12`, the PGE2 EC50 with compound turned out to be 1.35 nM.

For `S=c1[nH]nc(CSc2nc3ccccc3s2)n1Cc1ccccc1`, the PGE2 EC50 with compound is 0.72 nM.

As for `CCOC(=O)C1=C(C)NC(C)=C(C(=O)OC)C1c1cccc(Cl)c1Cl` (stereo not drawn), the PGE2 EC50 with compound was found to be 0.69 nM.

As for `COc1ccccc1CNc1cc(C)ccc1C`, the result was active and the PGE2 EC50 with compound stood at 0.77 nM.

`Cc1c(F)cccc1NC(=O)CCCCCC1NC(=O)NC1C` (stereo not drawn): the PGE2 EC50 with compound was determined as 1.84 nM.

Consider `Cc1ccc(Nc2nc(CSc3nnc(-c4ccccc4C)n3C)cs2)cc1`, for which the PGE2 EC50 with compound came out at 1.35 nM.
